Experiments:
Type in all cases: in vivo
[1] = tested on: Western Flower thrips (Frankliniella occidentalis); assay: Insecticidal test on western flower thrips, kidney bean leaf pieces; conditions: 96 h, 4 days after treatment, read-out: insecticidal efficacy (corrected mortality rate) against western flower thrips
Text: Insecticidal Test on Western Flower thrips (Frankliniella occidentalis)
Female adults of western flower thrips were inoculated onto kidney bean leaf pieces, and allowed to lay eggs thereon for one day, then the female adults were removed. After 3 days, the hatched larvae on the leaf pieces were counted, and then the agrochemical dispersions diluted to 50 ppm or 500 ppm, each of which contained the compound described in Tables 1 to 4 as an active ingredient were applied. The number of larvae of the species surviving at 4 days after the treatment was counted, and the corrected mortality rate was calculated according to the formula shown below, and the insecticidal efficacy was evaluated according to the criteria of Test Example 1. This test was conducted in duplicate. Corrected mortality rate (%)=(Survival rate in a non-treatment plot−Survival rate in a treatment plot)/(Survival rate in a non-treatment plot)×100 [Expression 3]

[2] = tested on: Small Brown Planthopper (Laodelphax striatellus); assay: Insecticidal test on small brown planthopper, dip treatment of rice seedlings; conditions: 192 h, rice seedling dip, 8 days after inoculation, read-out: insecticidal efficacy (corrected mortality rate) against small brown planthopper
Text: Insecticidal Test on Small Brown Planthopper (Laodelphax striatellus)
The compounds represented by the general formula (1) of the present invention or salts thereof were separately dispersed in water and diluted to 50 ppm or 500 ppm. Rice plant seedlings (variety: Nihonbare) were dipped in the agrochemical dispersions for 30 seconds. After air-dried, each seedling was put into a separate glass test tube and inoculated with ten 3rd-instar larvae of small brown planthopper, and then the glass test tubes were capped with cotton plugs. At 8 days after the inoculation, the numbers of surviving larvae and dead larvae were counted, the corrected mortality rate was calculated according to the formula shown below, and the insecticidal efficacy was evaluated according to the criteria of Test Example 1. Corrected mortality rate (%)=(Survival rate in a non-treatment plot−Survival rate in a treatment plot)/(Survival rate in a non-treatment plot)×100 [Expression 2]

[3] = tested on: Diamondback moth (Plutella xylostella); assay: Insecticidal test on diamondback moth, dip treatment of Chinese cabbage seedlings with laid eggs; conditions: 144 h, 6 days after treatment, read-out: insecticidal efficacy (corrected mortality rate) against diamondback moth
Text: Insecticidal Test on Diamondback moth (Plutella xylostella)
Adults of diamondback moth were released onto Chinese cabbage seedlings and allowed to lay eggs thereon. At 2 days after the release of the adults, the Chinese cabbage seedlings with laid eggs were dipped for about 30 seconds in agrochemical dispersions diluted to 50 ppm or 500 ppm, each of which contained a different compound represented by the general formula (1) of the present invention as an active ingredient. After air-dried, the seedlings were kept in a thermostatic chamber at 25° C. At 6 days after the dip treatment, the number of surviving larvae per plot was counted, the corrected mortality rate was calculated according to the formula shown below, and the insecticidal efficacy was evaluated according to the criteria shown below. This test was conducted in triplicate using 10 adults of diamondback moth per plot. Corrected mortality rate (%)=(Survival rate in a non-treatment plot−Survival rate in a treatment plot)/(Survival rate in a non-treatment plot)×100 [Expression 1] Criteria: • A: the mortality rate is 100%. • B: the mortality rate is 90 to 99%. • C: the mortality rate is 80 to 89%. • D: the mortality rate is 50 to 79%. • E: the mortality rate is 0 to 49%.

CSC(Nc1ccc(F)cc1)=C1C(=O)CN(c2ccc(C#N)nc2)N(C)C1=O [Compound No. 1-197, (4EZ)-5-(4-(((4-fluorophenyl)amino)(methylthio)methylene)-2-methyl-3,5-dioxo-tetrahydropyridazin-1(2H)-yl)picolinonitrile]
100%: mortality at 50 ppm [1] | mortality at 500 ppm [1] | mortality at 50 ppm [2] | mortality at 500 ppm [2]

CSC(Nc1ccc(F)cc1)=C1C(=O)CN(c2ccc(C#N)nc2)N(C(=O)C2CC2)C1=O [Compound No. 1-44, (4EZ)-5-(2-(cyclopropanecarbonyl)-4-(((4-fluorophenyl)amino)(methylthio)methylene)-3,5-dioxo-tetrahydropyridazin-1(2H)-yl)picolinonitrile]
100%: mortality at 50 ppm [1] | mortality at 500 ppm [1] | mortality at 50 ppm [2] | mortality at 500 ppm [2] | mortality at 500 ppm [3]

CCCNC(=O)N1C(=O)C(=C(Nc2ccc(F)cc2)SC)C(=O)CN1c1ccc(C#N)nc1 [Compound No. 1-182, (5EZ)-2-(6-cyanopyridin-3-yl)-5-(((4-fluorophenyl)amino)(methylthio)methylene)-4,6-dioxo-N-propyl-tetrahydropyridazine-1(2H)-carboxamide]
100%: mortality at 50 ppm [2] | mortality at 500 ppm [2]

CSC(Nc1ccc(F)cc1)=C1C(=O)CN(c2ccc(C(F)(F)F)nc2)N(C(=O)OC(C)(C)C)C1=O [Compound No. 1-63, tert-butyl (5EZ)-5-(((4-fluorophenyl)amino)(methylthio)methylene)-4,6-dioxo-2-[6-(trifluoromethyl)pyridin-3-yl]-tetrahydropyridazine-1(2H)-carboxylate]
100%: mortality at 50 ppm [1] | mortality at 500 ppm [1] | mortality at 50 ppm [2] | mortality at 500 ppm [2] | mortality at 50 ppm ([3]; 50 ppm) | mortality at 500 ppm [3]

Reference: patent publication US12698269B2, “1-aryltetrahydropyridazine-3,5-dione derivative or salt thereof and insecticidal agent containing the compound and method for using same” (NIHON NOHYAKU CO., LTD., priority 2022, dated 2026)
